Data published in patent US9751857B2, “Hepatitis B antiviral agents” (NOVIRA THERAPEUTICS, INC., priority 2011, dated 2017).

Legend:
[1] = target: HBV C150Bo capsid protein (HBV CA protein) (Hepatitis B virus genotype D subtype adw, UniProt P03147, C107A/C48A/C61A/R150C); experiment: HBV assembly assay (fluorescence quenching in vitro assembly); assay type: biochemical; details: at 10 μM
[2] = test system: HBV replication in HepG2-2.2.15 cells; experiment: Dot-blot assay of HBV replication; assay type: cell-based; details: Hepatitis B virus, 144 h
Protocol: Compounds active in the HBV assembly assay are tested for their activity and toxicity in cellular assay. In the first anti-viral assay, the ability of compounds to inhibit HBV replication in an HBV-producing hepatoma cell line using the dot-blot method is evaluated.
Briefly, confluent monolayers of HepG2-2.2.15 cells are incubated with complete medium containing various concentrations of a test compound. Three days later, the culture medium is replaced with fresh medium containing the appropriately diluted test compound. Six days following the initial administration of the test compound, the cell culture supernatant is collected, and cell lysis is performed. The samples are applied onto Nylos membranes and DNA is immobilized to the membrane by UV cross-linking. After pre-hybridization, the HBV probe is added and the hybridization is performed overnight. The membranes are exposed to the Kodak films; antiviral activity is calculated from the reduction in HBV DNA levels (EC50). The EC50 for antiviral activity is calculated from the dose response curves of active compounds.
In the first anti-viral assay, the ability of compounds to inhibit HBV replication in an HBV-producing hepatoma cell line using the dot-blot method was evaluated.
Confluent monolayers of HepG2-2.2.15 cells were incubated with complete medium containing various concentrations of a test compound. Three days later, the culture medium was replaced with fresh medium containing the appropriately diluted test compound. Six days following the initial administration of the test compound, the cell culture supernatant was collected, and cell lysis was performed. The samples were applied onto Nylos membranes and DNA was immobilized to the membrane by UV cross-linking. After pre-hybridization, the HBV probe was added and the hybridization was performed overnight. The membranes were exposed to the Kodak films; antiviral activity was calculated from the reduction in HBV DNA levels (EC50). The EC50 for antiviral activity was calculated from the dose response curves of active compounds. […]

Sequence of HBV C150Bo capsid protein (HBV CA protein) (P03147 1-150 C48A/C61A/C107A/R150C): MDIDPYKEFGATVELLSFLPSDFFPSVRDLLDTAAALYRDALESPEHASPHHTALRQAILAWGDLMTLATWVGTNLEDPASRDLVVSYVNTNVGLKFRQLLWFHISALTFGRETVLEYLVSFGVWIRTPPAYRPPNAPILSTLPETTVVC

Row | SMILES | Activity in HBV assembly assay [1] | inhibition at 10 µM [2] [%]
1 | Cc1cc(NC(=O)c2cccc(S(=O)(=O)N3CCC(C)(CO)CC3)c2)ccc1F [compound 478] | + (‘+’ indicates >50% activity at 10 μM) | > 50
2 | O=C(Nc1ccc(F)c(Cl)c1)c1cccc(S(=O)(=O)N2CCC(O)(CO)CC2)c1 [compound 501] | + (‘+’ indicates >50% activity at 10 μM) | > 50
3 | O=C(Nc1ccc(F)c(Cl)c1)c1cccc(S(=O)(=O)N2CCC(O)(c3ccccc3)CC2)c1 [compound 541] | + (‘+’ indicates >50% activity at 10 μM) | > 50
4 | O=C(Nc1ccc(F)c(Cl)c1)c1cccc(S(=O)(=O)N2CCC(CO)(Cc3ccccc3)CC2)c1 [compound 553] | + (‘+’ indicates >50% activity at 10 μM) | > 50
5 | O=C(Nc1cc(F)c(F)c(Cl)c1)c1cccc(S(=O)(=O)N2CCC(O)CC2)c1 [compound 595] | + (‘+’ indicates >50% activity at 10 μM) | > 50
6 | O=C(Nc1ccc(F)c(CF)c1)c1cccc(S(=O)(=O)N2CC(O)C2)c1 [compound 646] | + (‘+’ indicates >50% activity at 10 μM) | > 50
7 | O=C(Nc1ccc(F)c(Br)c1)c1cccc(S(=O)(=O)N2CCC(O)(CO)CC2)c1 [compound 758] | + (‘+’ indicates >50% activity at 10 μM) | > 50
8 | O=C(Nc1cc(F)c(F)c(F)c1)c1cccc(S(=O)(=O)N2CCC(O)(c3ccc(F)cc3)CC2)c1 [compound 765] | + (‘+’ indicates >50% activity at 10 μM) | > 50
9 | O=C(Nc1ccc(F)c(Cl)c1)c1cccc(S(=O)(=O)N2CCC(O)(c3cccc(F)c3F)CC2)c1 [compound 775] | + (‘+’ indicates >50% activity at 10 μM) | > 50
10 | O=C(Nc1cc(F)c(F)c(CF)c1)c1cccc(S(=O)(=O)N2CC(O)C2)c1 [compound 803] | + (‘+’ indicates >50% activity at 10 μM) | > 50
11 | O=C(Nc1ccc(F)c(Br)c1)c1cccc(S(=O)(=O)N2CC(O)C(F)C2)c1 (centres unmarked) [compound 826] | + (‘+’ indicates >50% activity at 10 μM) | > 50
12 | O=C(Nc1ccc(F)c(Br)c1)c1cccc(S(=O)(=O)NC2CCCC2O)c1 (centres unmarked) [compound 843] | + (‘+’ indicates >50% activity at 10 μM) | > 50
13 | O=C(Nc1ccc(F)c(Cl)c1)c1cc(S(=O)(=O)N2CCC(O)CC2)ccc1F [compound 885] | + (‘+’ indicates >50% activity at 10 μM) | > 50
14 | O=C(Nc1cc(F)c(F)c(F)c1)c1ccc(F)c(S(=O)(=O)N2CCC(O)CC2)c1 [compound 890] | + (‘+’ indicates >50% activity at 10 μM) | > 50
15 | O=C(Nc1cc(F)c(F)c(F)c1)c1ccc(F)c(S(=O)(=O)N2CCC(CCO)CC2)c1 [compound 900] | + (‘+’ indicates >50% activity at 10 μM) | > 50
16 | O=C(Nc1cc(F)c(F)c(F)c1)c1ccc(F)c(S(=O)(=O)N2CC(O)C2)c1 [compound 901] | + (‘+’ indicates >50% activity at 10 μM) | > 50
17 | O=C(Nc1cc(F)c(F)c(F)c1)c1ccc(F)c(S(=O)(=O)N2CCC(O)C2)c1 (centres unmarked) [compound 903] | + (‘+’ indicates >50% activity at 10 μM) | > 50
18 | O=C(Nc1ccc(F)c(Cl)c1)c1ccc(F)c(S(=O)(=O)N2CCC(CCO)CC2)c1 [compound 914] | + (‘+’ indicates >50% activity at 10 μM) | > 50
19 | O=C(Nc1cc(F)c(F)c(F)c1)c1ccc(F)c(S(=O)(=O)N2CCC(O)(CO)CC2)c1 [compound 916] | + (‘+’ indicates >50% activity at 10 μM) | > 50
20 | COC(=O)c1ccc(C(=O)Nc2cc(F)c(F)c(F)c2)cc1S(=O)(=O)N1CCC(O)CC1 [compound 927] | + (‘+’ indicates >50% activity at 10 μM) | > 50
21 | Cc1ccc(S(=O)(=O)N2CCC(O)CC2)cc1C(=O)Nc1cc(F)c(F)c(F)c1 [compound 928] | + (‘+’ indicates >50% activity at 10 μM) | > 50
22 | O=C(Nc1cc(F)c(F)c(Cl)c1)c1cccc(S(=O)(=O)N2CC(O)C2)c1 [compound 935] | + (‘+’ indicates >50% activity at 10 μM) | > 50

Row | SMILES | Activity in HBV assembly assay [1] | inhibition at 10 µM [2] [%]
23 | O=C(Nc1ccc(F)c(Cl)c1)c1ccc(F)c(S(=O)(=O)N2CC(O)C2)c1 [compound 953] | + (‘+’ indicates >50% activity at 10 μM) | > 50
24 | O=C(Nc1ccc(F)c(Cl)c1)c1ccc(F)c(S(=O)(=O)NC2CCC(O)C2)c1 (centres unmarked) [compound 958] | + (‘+’ indicates >50% activity at 10 μM) | > 50
25 | O=C(Nc1ccc(F)c(Br)c1)c1ccc(F)c(S(=O)(=O)NC2CCC(O)C2)c1 (centres unmarked) [compound 959] | + (‘+’ indicates >50% activity at 10 μM) | > 50
26 | O=C(Nc1ccc(F)c(Cl)c1)c1ccc(Cl)c(S(=O)(=O)NC2CC(O)C2)c1 (centres unmarked) [compound 1042] | + (‘+’ indicates >50% activity at 10 μM) | > 50
27 | O=C(Nc1cc(F)c(F)c(F)c1)c1ccc(Cl)c(S(=O)(=O)N2CCC(O)CC2)c1 [compound 1057] | + (‘+’ indicates >50% activity at 10 μM) | > 50
28 | O=C(Nc1ccc(F)c(Br)c1)c1ccc(Cl)c(S(=O)(=O)N2CCC(CCO)CC2)c1 [compound 1087] | + (‘+’ indicates >50% activity at 10 μM) | > 50
29 | O=C(Nc1ccc(F)c(Br)c1)c1ccc(Cl)c(S(=O)(=O)N2CCC(O)(CO)CC2)c1 [compound 1099] | + (‘+’ indicates >50% activity at 10 μM) | > 50
30 | O=C(Nc1cc(F)c(F)c(F)c1)c1cc(S(=O)(=O)NC2CCCC2O)ccc1Cl (centres unmarked) [compound 1113] | + (‘+’ indicates >50% activity at 10 μM) | > 50
31 | O=C(Nc1ccc(F)c(Cl)c1)c1cc(S(=O)(=O)NC2CCCC2O)ccc1Cl (centres unmarked) [compound 1114] | + (‘+’ indicates >50% activity at 10 μM) | > 50
32 | O=C(Nc1cc(F)c(F)c(F)c1)c1cc(S(=O)(=O)NC2CCCCC2O)ccc1Cl (centres unmarked) [compound 1129] | + (‘+’ indicates >50% activity at 10 μM) | > 50
33 | O=C(Nc1cc(F)c(F)c(F)c1)c1ccc(Cl)c(S(=O)(=O)N2CCC(O)(CO)CC2)c1 [compound 1130] | + (‘+’ indicates >50% activity at 10 μM) | > 50
34 | O=C(Nc1cc(F)c(F)c(F)c1)c1cc(S(=O)(=O)N2CCC(O)CC2)ccc1Cl [compound 1149] | + (‘+’ indicates >50% activity at 10 μM) | > 50
35 | O=C(Nc1cc(F)c(F)c(F)c1)c1cc(S(=O)(=O)N2CC(O)C2)ccc1Cl [compound 1153] | + (‘+’ indicates >50% activity at 10 μM) | > 50
36 | O=C(Nc1ccc(F)c(Cl)c1)c1cccc(S(=O)(=O)NC2CCC(O)C2)c1 (centres unmarked) [compound 1157] | + (‘+’ indicates >50% activity at 10 μM) | > 50
37 | CC1(O)CCN(S(=O)(=O)c2cc(C(=O)Nc3cc(F)c(F)c(F)c3)ccc2F)CC1 [compound 1161] | + (‘+’ indicates >50% activity at 10 μM) | > 50
38 | O=C(Nc1cc(F)c(F)c(F)c1)c1cc(S(=O)(=O)N2CCC(O)(CO)CC2)ccc1Cl [compound 1189] | + (‘+’ indicates >50% activity at 10 μM) | > 50
39 | O=C(Nc1cc(F)c(F)c(F)c1)c1ccc(F)c(S(=O)(=O)N2CCC(O)C(CF)C2)c1 (centres unmarked) [compound 1283] | + (‘+’ indicates >50% activity at 10 μM) | > 50
40 | O=C(Nc1ccc(F)c(F)c1)c1cc(S(=O)(=O)N2CCC(O)CC2)c(F)cc1Cl [compound 1338] | + (‘+’ indicates >50% activity at 10 μM) | > 50
41 | O=C(Nc1cc(F)c(F)c(F)c1)c1cc(S(=O)(=O)N2CC(O)C2)c(F)cc1Cl [compound 1339] | + (‘+’ indicates >50% activity at 10 μM) | > 50
42 | CN(CCO)S(=O)(=O)c1cc(C(=O)Nc2ccc(F)c(Cl)c2)c(Cl)cc1F [compound 1345] | + (‘+’ indicates >50% activity at 10 μM) | > 50
43 | O=C(Nc1cc(F)c(F)c(F)c1)c1cc(S(=O)(=O)N2CCC(O)(CO)CC2)c(F)cc1Cl [compound 1379] | + (‘+’ indicates >50% activity at 10 μM) | > 50
